Biological target: T1, TNKS2 (Homo sapiens, UniProt Q9H2K2)
T1 sequence (Q9H2K2 1-1166): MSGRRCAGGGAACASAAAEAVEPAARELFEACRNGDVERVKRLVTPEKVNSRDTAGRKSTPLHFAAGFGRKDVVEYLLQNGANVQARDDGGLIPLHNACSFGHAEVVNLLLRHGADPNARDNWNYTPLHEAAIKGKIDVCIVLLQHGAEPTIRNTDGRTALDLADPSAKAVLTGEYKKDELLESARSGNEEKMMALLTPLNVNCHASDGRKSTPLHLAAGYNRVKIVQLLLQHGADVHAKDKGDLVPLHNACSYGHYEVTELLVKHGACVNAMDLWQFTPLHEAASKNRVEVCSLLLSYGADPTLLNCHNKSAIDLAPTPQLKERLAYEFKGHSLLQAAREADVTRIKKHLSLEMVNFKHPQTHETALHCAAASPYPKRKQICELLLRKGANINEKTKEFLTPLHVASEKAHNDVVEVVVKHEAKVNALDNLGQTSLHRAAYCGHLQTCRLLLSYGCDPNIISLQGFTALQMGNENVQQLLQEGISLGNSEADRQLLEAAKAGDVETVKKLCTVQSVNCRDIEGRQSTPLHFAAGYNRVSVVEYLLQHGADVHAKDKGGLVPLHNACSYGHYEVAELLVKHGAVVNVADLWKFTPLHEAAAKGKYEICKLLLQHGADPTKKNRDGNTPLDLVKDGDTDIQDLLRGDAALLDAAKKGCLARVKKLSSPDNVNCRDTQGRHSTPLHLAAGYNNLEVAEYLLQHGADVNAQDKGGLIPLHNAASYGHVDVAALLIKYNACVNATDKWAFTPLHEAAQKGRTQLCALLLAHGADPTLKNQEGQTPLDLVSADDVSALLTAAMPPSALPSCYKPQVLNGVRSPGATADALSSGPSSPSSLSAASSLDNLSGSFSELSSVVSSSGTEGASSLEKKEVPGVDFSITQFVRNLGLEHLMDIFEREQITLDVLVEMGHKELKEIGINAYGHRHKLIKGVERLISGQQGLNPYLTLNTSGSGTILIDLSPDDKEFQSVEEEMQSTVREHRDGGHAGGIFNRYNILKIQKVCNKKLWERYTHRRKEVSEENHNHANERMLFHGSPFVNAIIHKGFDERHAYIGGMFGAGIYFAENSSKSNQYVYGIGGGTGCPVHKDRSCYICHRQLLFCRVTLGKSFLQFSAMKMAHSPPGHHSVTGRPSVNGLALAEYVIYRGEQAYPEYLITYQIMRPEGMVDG
Test: Modified TNKS2 Assay 3 (BPS kit #80578, biotin-NAD+, 96 well)
Assay type: biochemical
Conditions: human TNKS2, BPS kit #80578, 96 well
How it was run: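 Commercial kit assay measuring TNKS2-catalysed incorporation of biotin-labelled NAD+ into a protein substrate, detected by streptavidin-HRP chemiluminescence. Run per manufacturer's protocol; IC50 is the concentration halving the normalised signal.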

SMILES | IC50 [nM]
CC(CN1CCOCC1)NC(=O)c1[nH]cnc1C(=O)Nc1ccc(NC(=O)c2ccc(F)cc2Cl)cc1 (single isomer, unassigned; enantiomer 2) [Example 270, N^4-{4-[(2-chloro-4-fluorobenzoyl)amino]phenyl}-N^5-[1-(morpholin-4-yl)propan-2-yl]-1H-imidazole-4,5-dicarboxamide (enantiomer 2)] | 10
CN(C)CCNC(=O)c1nc[nH]c1C(=O)Nc1ccc(NC(=O)c2ccc(F)cc2Cl)cc1 [Example 22, N^4-{4-[(2-chloro-4-fluorobenzoyl)amino]phenyl}-N^5-[2-(dimethylamino)ethyl]-1H-imidazole-4,5-dicarboxamide] | 10
O=C(Nc1ccc(NC(=O)c2[nH]cnc2C(=O)NCCN2CCCCC2)cc1)c1ccc(F)cc1Cl [Example 32, N^4-{4-[(2-chloro-4-fluorobenzoyl)amino]phenyl}-N^5-[2-(piperidin-1-yl)ethyl]-1H-imidazole-4,5-dicarboxamide] | 1
O=C(Nc1ccc(NC(=O)c2[nH]cnc2C(=O)NC2CC2)cc1)c1cc(F)c(F)cc1Cl [Example 51, N^5-{4-[(2-chloro-4,5-difluorobenzoyl)amino]phenyl}-N^4-cyclopropyl-1H-imidazole-4,5-dicarboxamide] | 10
O=C(Nc1ccc(NC(=O)c2[nH]cnc2C(=O)N2CC3(COC3)C2)cc1)c1cc(F)c(F)cc1Cl [Example 52, N-{4-[(2-chloro-4,5-difluorobenzoyl)amino]phenyl}-4-(2-oxa-6-azaspiro[3.3]hept-6-ylcarbonyl)-1H-imidazole-5-carboxamide] | 250
CNC(=O)c1nc[nH]c1C(=O)Nc1ccc(NC(=O)c2ccc(S(C)(=O)=O)cc2Cl)cc1 [Example 55, N^5-(4-{[2-chloro-4-(methylsulfonyl)benzoyl]amino}phenyl)-N^4-methyl-1H-imidazole-4,5-dicarboxamide] | 10
CNC(=O)c1nc[nH]c1C(=O)Nc1ccc(NC(=O)c2ccc(F)cc2Br)cc1 [Example 56, N^5-{4-[(2-bromo-4-fluorobenzoyl)amino]phenyl}-N^4-methyl-1H-imidazole-4,5-dicarboxamide] | 60
CNC(=O)c1nc[nH]c1C(=O)Nc1ccc(NC(=O)c2ccc(F)cc2I)cc1 [Example 61, N^5-{4-[(4-fluoro-2-iodobenzoyl)amino]phenyl}-N^4-methyl-1H-imidazole-4,5-dicarboxamide] | 3
Cc1nc(C(=O)Nc2ccc(NC(=O)c3ccc(F)cc3Cl)cc2)c(C(=O)NCCN2CCCCC2)[nH]1 [Example 67, N^4-{4-[(2-chloro-4-fluorobenzoyl)amino]phenyl}-2-methyl-N^5-[2-(piperidin-1-yl)ethyl]-1H-imidazole-4,5-dicarboxamide] | 5
C[C@@H]1CCCCN1CCNC(=O)c1[nH]cnc1C(=O)Nc1ccc(NC(=O)c2ccc(F)cc2Cl)cc1 [Example 267, N^4-{4-[(2-chloro-4-fluorobenzoyl)amino]phenyl}-N^5-{2-[(2R)-2-methylpiperidin-1-yl]ethyl}-1H-imidazole-4,5-dicarboxamide] | < 0.5
C[C@@H]1CCCN(CCNC(=O)c2[nH]cnc2C(=O)Nc2ccc(NC(=O)c3ccc(F)cc3Cl)cc2)C1 [Example 278, N^4-{4-[(2-chloro-4-fluorobenzoyl)amino]phenyl}-N^5-{2-[(3R)-3-methylpiperidin-1-yl]ethyl}-1H-imidazole-4,5-dicarboxamide] | 1
